According to patent EP0573682A1, “Tea polyphenols as anti-hyperglycemic agents” (MITSUI NORIN CO., LTD., priority 1992, dated 1993):

Columns and labels:
[1] = system: ICR mice; assay: Acute toxicity; assay type: in vivo; conditions: perorally administered; 6 week ICR male mice; 10080 min
Procedure: (§1) (-)Epigallocatechin gallate was tested with respect to its acute toxicity. Where (-)epigallocatechin gallate was perorally administered to 6 week ICR male mice, LD₅₀ after one week was 2314mg/kg. Where (-)epigallocatechin was administered intraperitonealy to 5 week old female ICR mice, LD₅₀ after one week was 150mg/kg.

[2] = Acute toxicity; assay type: in vivo, mice; conditions: mouse, in vivo, ip; administered intraperitonealy; 5 week old female ICR mice; read-out: LD₅₀ after one week
Procedure: as §1

Row | SMILES | LD₅₀ after one week [1] [mg/kg] | LD50 at 168 h [2] [mg/kg]
1 | O=C(O[C@@H]1Cc2c(O)cc(O)cc2O[C@@H]1c1cc(O)c(O)c(O)c1)c1cc(O)c(O)c(O)c1 [(-)epigallocatechin gallate, (-) Epigallocatechin gallate] | 2314 | 
2 | Oc1cc(O)c2c(c1)O[C@H](c1cc(O)c(O)c(O)c1)[C@H](O)C2 [(-)epigallocatechin, (-) Epigallocatechin] |  | 150
